Data on six compounds can be found in patent US8318940B2, “Naphthyridin-2 (1 H)-one compounds useful as antibacterials” (Glaxo Group Limited, priority 2009, dated 2012).

Molecules are shown by their SMILES.

For this test, the system named is Mycobacterium tuberculosis H37Rv. The experiment in a line: Mycobacterium tuberculosis H37Rv inhibition assay (MIC, resazurin). Type of test: cell-based. The conditions noted are these: ATCC 25618 / H37Rv, H37Rv strain (ATCC25618), Middlebrook 7H9, 37° C. six days, resazurin fluorescence after 48 hours.
As a reminder, the MIC is the lowest concentration that inhibits growth of the organism. In turn, `O=c1ccc2ncc(F)cc2n1CCN1CCC(NCc2cnc(CO)c(Cl)c2)CC1` [Example 1, 1-{2-[4-({[5-chloro-6-(hydroxymethyl)-3-pyridinyl]methyl}amino)-1-piperidinyl]ethyl}-7-fluoro-1,5-naphthyridin-2(1H)-one] yielded an MIC not above 0.3 µg/mL.

The compound `Cl.O=c1ccc2ncc(F)cc2n1CCN1CCC(NCc2cnc(CO)c(Cl)c2)CC1` [Example 2, 1-{2-[4-({[5-chloro-6-(hydroxymethyl)-3-pyridinyl]methyl}amino)-1-piperidinyl]ethyl}-7-fluoro-1,5-naphthyridin-2(1H)-one hydrochloride] had an MIC not above 0.3 µg/mL.

As for `O=c1ccc2ncc(F)cc2n1CCN1CC[C@H](NCc2cnc(CO)c(Cl)c2)[C@H](O)C1` [Example 3, 1-{2-[(3R,4S)-4-({[5-chloro-6-(hydroxymethyl)-3-pyridinyl]methyl}amino)-3-hydroxy-1-piperidinyl]ethyl}-7-fluoro-1,5-naphthyridin-2(1H)-one], the MIC is not above 0.3 µg/mL.

On to `Cl.O=c1ccc2ncc(F)cc2n1CCN1CC[C@H](NCc2cnc(CO)c(Cl)c2)[C@H](O)C1` [Example 4, 1-{2-[(3R,4S)-4-({[5-chloro-6-(hydroxymethyl)-3-pyridinyl]methyl}amino)-3-hydroxy-1-piperidinyl]ethyl}-7-fluoro-1,5-naphthyridin-2(1H)-one hydrochloride], for which the MIC was not above 0.3 µg/mL.

On to `COc1cnc2ccc(=O)n(CCN3CCC(NCc4cnc(CO)c(Cl)c4)CC3)c2c1` [Example 5, 1-{2-[4-({[5-chloro-6-(hydroxymethyl)-3-pyridinyl]methyl}amino)-1-piperidinyl]ethyl}-7-(methyloxy)-1,5-naphthyridin-2(1H)-one], for which the MIC was not above 0.3 µg/mL.

`O=c1ccc2ncc(F)cc2n1CCN1CCC(NCc2cnc(CO)c(Br)c2)CC1` [Example 6, 1-{2-[4-({[5-bromo-6-(hydroxymethyl)-3-pyridinyl]methyl}amino)-1-piperidinyl]ethyl}-7-fluoro-1,5-naphthyridin-2(1H)-one] yielded an MIC not above 0.3 µg/mL.
